Experimental data reported in patent EP4566598A1, “COMPOSITIONS PROVIDING SGLT2I AND BHB ACTIVITY AND METHODS OF USE TO TREAT HUMAN DISEASE” (priority 2023, dated 2025).
“And” between values parts separate entries of the source, which are not always exact repeats. Equal entries are not always repeated. Where two headings read alike, the source gives them in different places. One block for each compound: values may come before it.

Experiments:
[1] = cited from earlier work
SGLT2 = molecular target: T1, SGLT2 (Homo sapiens, UniProt P31639); settings: cited from earlier work
T1 sequence (P31639 1-672): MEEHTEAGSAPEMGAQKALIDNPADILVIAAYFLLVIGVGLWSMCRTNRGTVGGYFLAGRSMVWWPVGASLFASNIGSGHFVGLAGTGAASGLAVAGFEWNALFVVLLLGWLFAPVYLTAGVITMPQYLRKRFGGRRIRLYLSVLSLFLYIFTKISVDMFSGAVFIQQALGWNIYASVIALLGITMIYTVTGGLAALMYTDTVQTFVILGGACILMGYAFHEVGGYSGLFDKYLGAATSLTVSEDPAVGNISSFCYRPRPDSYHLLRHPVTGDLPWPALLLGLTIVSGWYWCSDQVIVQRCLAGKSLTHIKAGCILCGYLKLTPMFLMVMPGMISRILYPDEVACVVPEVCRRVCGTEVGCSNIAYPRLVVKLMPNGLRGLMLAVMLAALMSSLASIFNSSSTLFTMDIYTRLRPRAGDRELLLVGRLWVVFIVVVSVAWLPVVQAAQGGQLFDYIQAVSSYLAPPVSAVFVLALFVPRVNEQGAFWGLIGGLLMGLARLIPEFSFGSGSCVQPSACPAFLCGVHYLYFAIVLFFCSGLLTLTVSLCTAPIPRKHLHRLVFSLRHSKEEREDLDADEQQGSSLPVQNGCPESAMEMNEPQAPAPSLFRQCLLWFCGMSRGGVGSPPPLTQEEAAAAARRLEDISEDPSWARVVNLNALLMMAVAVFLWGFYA

AAA [2] = settings: PPE induced AAA; cited from earlier work
abdominal PVAT = settings: mice fed with Western diet; cited from earlier work
AAA [3] = settings: murine models; cited from earlier work
[4] = cited from earlier work; remark: listed apart in the source
AAA [5] = settings: apoE-/- Ang II induction model; cited from earlier work
[6] = mice; cited from earlier work
human VSMCs = settings: dependent on TRAF3IP2/ROS/NLRP3/caspase-1; cited from earlier work
[7] = cited from earlier work; remark: listed apart in the source
[8] = test system: rat aortic smooth muscle cells; settings: in vitro; cited from earlier work
[9] = cited from earlier work; remark: listed apart in the source
[10] = 28-day study, 28 volunteers; cited from earlier work
vSMCs = settings: via ROS-Nrf2 pathway; cited from earlier work
[11] = in vivo
[12] = high-fat diet fed mice; cited from earlier work
[13] = cited from earlier work; remark: listed apart in the source

SMILES: CCOc1ccc(Cc2cc([C@@H]3O[C@H](CO)[C@@H](O)[C@H](O)[C@H]3O)ccc2Cl)cc1 [Dapagliflozin, (2S,3R,4R,5S,6R)-2-{4-chloro-3-[(4-ethoxyphenyl)methyl]phenyl}-6-(hydroxymethyl)oxane-3,4,5-triol]
Bioavailability ([1]; in vivo): 78%
t1/2 ([1]; in vivo): 12.9 h
tmax ([1]; in vivo): 1 to 1.5 h
SGLT2 selectivity over SGLT1 (SGLT2): 1200 fold
aneurysmal induction and expansion (AAA [2]): significantly impeded

SMILES: OC[C@H]1O[C@@H](c2ccc(F)c(Cc3cc4ccccc4s3)c2)[C@H](O)[C@@H](O)[C@@H]1O [Ipragliflozin]
t1/2 (hours) ([1]; 50 mg dose): 15-16 (50 mg dose) hours and 15–16 (50 mg dose) hours
tmax ([1]; 50 mg): 1 h
Bioavailability ([1]; in vivo): 90%
inflammation, fibrosis, and adipocyte death of abdominal PVAT (abdominal PVAT): attenuated
SGLT2 selectivity over SGLT1 (SGLT2): 360 fold

SMILES: Nc1ccccc1NC(=O)c1ccc(CNC(=O)OCc2cccnc2)cc1 [MS-275]
effect on AAA (AAA [3]): reduce AAA

SMILES: CCc1ccc(Cc2ccc3c(c2)[C@]2(OC3)O[C@H](CO)[C@@H](O)[C@H](O)[C@H]2O)cc1 [Tofogliflozin]
Cmax ([1]; 10 mg dose): 489 ng/mL
t1/2 ([1]; 10 mg dose): 6.8 h
Bioavailability ([1]; 10 mg): 97.50%
tmax ([1]; 10 mg): 0.75 h
Protein binding [4]: 83%
SGLT2 selectivity over SGLT1 (SGLT2): 2900 fold

SMILES: OC[C@H]1O[C@@H](c2ccc(Cl)c(Cc3ccc(O[C@H]4CCOC4)cc3)c2)[C@H](O)[C@@H](O)[C@@H]1O [Empagliflozin]
Cmax ([1]; 10 mg dose): 259 nM
t1/2 ([1]; 10 mg dose): 13.2 h
t1/2 (hours) ([1]; 10 mg dose): 13.2 (10 mg dose); hours
Cmax ([1]; 25 mg dose): 687 nM
t1/2 ([1]; 25 mg dose): 13.3 h
t1/2 (hours) ([1]; 25 mg dose): 13.3h (25 mg dose) hours
tmax ([1]; in vivo): 1.5 h
effect on AAA (AAA [5]): impedes AAA
Bioavailability [6]: 90-97% and 90–97%
secretion of IL-1b and IL-18 (human VSMCs): inhibits
Bioavailability ([7]; dogs): 89%
aortic smooth muscle cell proliferation [8]: significantly decreased
Bioavailability ([9]; rats): 31%

SMILES: C[C@@H](O)CCOC(=O)C[C@@H](C)O [KE-BHB]
effect on body weights or composition, fasting blood glucose, cholesterol, triglyceride, or electrolyte concentrations, blood gases or kidney function [10]: no effect

SMILES: CCOc1ccc(Cc2cc([C@]34OC[C@](CO)(O3)[C@@H](O)[C@H](O)[C@H]4O)ccc2Cl)cc1 [Ertugliflozin]
Cmax ([1]; 15 mg dose): 268 ng/mL (15 mg dose)
Bioavailability ([1]; in vivo): 70-90%
t1/2 ([1]; in vivo): 11 to 17 h
tmax ([1]; in vivo): 0.5 to 1.5 h
Protein binding [4]: 95%
SGLT2 selectivity over SGLT1 (SGLT2): 2000 fold

SMILES: Cc1ccc([C@@H]2O[C@H](CO)[C@@H](O)[C@H](O)[C@H]2O)cc1Cc1ccc(-c2ccc(F)cc2)s1 [Canagliflozin]
t1/2 ([1]; 100 mg dose): 10.6 h
t1/2 (hours) ([1]; 100 mg dose): 10.6 (100 mg dose); hours
Bioavailability ([1]; 300 mg dose): 65% (300 mg dose)
t1/2 ([1]; 300 mg dose): 13.1 h
t1/2 (hours) ([1]; 300 mg dose): 13.1 (300 mg dose) hours
tmax ([1]; in vivo): 1 to 2 h
Protein binding [4]: 99%
expression of heme oxygenase-1 (vSMCs): stimulates
SGLT2 selectivity over SGLT1 (SGLT2): 250 fold

persistence of BHB elevation [11]: ~ 2.5 hours
SMILES: C[C@@H](O)CC(=O)O [R-BHB, R-beta hydroxybutyrate]

SMILES: CCOc1ccc(Cc2cc([C@@H]3S[C@H](CO)[C@@H](O)[C@H](O)[C@H]3O)c(OC)cc2C)cc1 [Luseogliflozin]
Cmax ([1]; in vivo): 119 ± 27.0 ng/mL
t1/2 ([1]; in vivo): 9.24 ± 0.928 h
tmax ([1]; in vivo): 0.625 ± 0.354 h
Bioavailability ([7]; male dogs): 97.2%
intimal hyperplasia after bilateral femoral artery wire injury [12]: reducing intimal hyperplasia
Bioavailability ([9]; female rats): 58.2%
SGLT2 selectivity over SGLT1 (SGLT2): 1650 fold

persistence of BHB elevation [11]: 4 to 5 h
SMILES: C[C@H](O)CC(=O)O [S-BHB]
stability in human plasma compared with R/D BHB ([13]; human plasma): far more stable
sustained in plasma, relative to (D/R) BHB ([13]; plasma): more than 2 x
